Here are results for 25 compounds from ChEMBL document CHEMBL1201862, “PubChem BioAssay data set” (2004).

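Exposure lasted 48 hours, with cells grown in 96-well plates and compounds tested at five concentrations. Here, GI50 denotes the concentration required for 50% inhibition of growth.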 Active and inactive are the calls of the source. Rule as the data show it: active = GI50 up to about 1.1 µM and inactive = higher.

Among the test systems are LXFL 529; XF498; SNB-78; HOP-18; DMS-114; KM-20L2; DMS-273; RXF 631; DLD-1.
Common to all, as to assay: DTP human tumour cell line panel, 48 h

As a reminder, the GI50 is the concentration that inhibits growth by half. For `NC(=O)CN(CC(N)=O)C(N)=O`, the GI50 with LXFL 529, with XF498, in the assay on SNB-78, in the assay with HOP-18, in the assay on DMS-114 and in the assay with KM-20L2 was > 100 µM (inactive) in each case. Also, in the assay on DMS-273, the GI50 was > 100 µM (inactive).

As for `COc1ccc(/C=C/C(=O)c2sc(NC(=S)NC(=O)c3ccc(Cl)cc3)nc2C)cc1OC`, the GI50 with LXFL 529 was 32.2 µM (inactive); with XF498, 34.8 µM (inactive); in the assay with SNB-78, 54.3 µM (inactive); with HOP-18 it was 5.89 µM (inactive); with DMS-114 it was 41.6 µM (inactive); in the assay on KM-20L2, > 100 µM (inactive). Besides, the GI50 was 48.6 µM (inactive) with RXF 631 and 49.4 µM (inactive) in the assay on DLD-1.

For the compound `CCCC(=O)CC(C)C(=O)C(=O)NC12CC3CC(CC(C3)C1)C2` (configuration not stated), the GI50 in the assay on XF498, with SNB-78, in the assay on HOP-18, in the assay on KM-20L2, in the assay with DMS-273 and in the assay with DLD-1 was > 100 µM (inactive) throughout.

Turning to `C1CSCCSCCCS[C@@H]2CCCCC2SC1` (some centres not stated), the GI50 is > 100 µM (inactive) in the assay on LXFL 529; > 100 µM (inactive) in the assay on SNB-78; > 100 µM (inactive) in the assay with HOP-18; 28.2 µM (inactive) in the assay with DMS-114; > 100 µM (inactive) with KM-20L2; > 100 µM (inactive) in the assay with DMS-273. Also, in the assay with DLD-1, the GI50 is > 100 µM (inactive).

With `CC1CSC(=S)N1C(=O)N1C(=S)SCC1C` (configuration not stated), the GI50 is 33.4 µM (inactive) in the assay with LXFL 529; 43.2 µM (inactive) in the assay on SNB-78; 53.6 µM (inactive) in the assay on HOP-18; 38.3 µM (inactive) in the assay on DMS-114; 38.7 µM (inactive) with KM-20L2; 20.1 µM (inactive) in the assay on DMS-273. Besides, the GI50 in the assay with DLD-1 is 19.3 µM (inactive).

In the case of `O=C1N/C(=C\[N+](=O)[O-])c2ccccc21`, the GI50 with LXFL 529, with SNB-78, in the assay with HOP-18, with DMS-114, in the assay with KM-20L2 and with RXF 631 was > 100 µM (inactive) throughout. The GI50 with DMS-273 and in the assay with DLD-1 was > 100 µM (inactive) in each case.

With `COc1cc(CNc2nc3ccc(C(F)(F)F)cc3nc2-c2ccccc2)cc(OC)c1OC`, the GI50 in the assay with LXFL 529 was 24.8 µM (inactive); in the assay on XF498 it was 56.1 µM (inactive); in the assay on SNB-78, 14.5 µM (inactive); with KM-20L2, > 100 µM (inactive); in the assay with RXF 631 it was > 100 µM (inactive); in the assay with DMS-273, 39 µM (inactive). Moreover, the GI50 in the assay with DLD-1 was 48.6 µM (inactive).

For `CC(=O)N1c2ccccc2C2=CC3C4C(=O)N(c5ccccc5)C(=O)C4C21C1C(=O)N(c2ccccc2)C(=O)C31` (configuration not stated), the GI50 in the assay with LXFL 529 was 81.3 µM (inactive); with XF498 it was 10.9 µM (inactive); in the assay with SNB-78 it was 84.5 µM (inactive); in the assay on HOP-18, 34.4 µM (inactive); with DMS-114 it was 4.27 µM (inactive); with KM-20L2, 30.3 µM (inactive). In addition, in the assay with DLD-1, the GI50 is 23.4 µM (inactive).

`CN1CC(=O)N2Cc3ccccc3-n3cccc3C2C1` (configuration not stated): the GI50 in the assay on LXFL 529 was > 100 µM (inactive); in the assay on XF498, > 100 µM (inactive); in the assay with SNB-78, > 100 µM (inactive); with HOP-18, 4.92 µM (inactive); in the assay with KM-20L2, > 100 µM (inactive); in the assay on RXF 631, > 100 µM (inactive). Further, the GI50 in the assay on DMS-273 and in the assay on DLD-1 was > 100 µM (inactive) each time.

With `O=C1c2ccncc2C(=O)c2c(O)ccc(O)c21`, the GI50 in the assay on LXFL 529 was 10.3 µM (inactive); with XF498 it was 4.16 µM (inactive); in the assay with HOP-18 it was 12.9 µM (inactive); in the assay with DMS-114, 3.01 µM (inactive); in the assay with KM-20L2 it was 2.88 µM (inactive).

With `O=C(NCCCN1CCN(CCCNC(=O)c2cnc3ccccc3n2)CC1)c1cnc2ccccc2n1`, the GI50 in the assay with LXFL 529 is > 100 µM (inactive); in the assay with SNB-78 it was > 100 µM (inactive); with HOP-18, > 100 µM (inactive); with DMS-114, 70.1 µM (inactive); in the assay with KM-20L2, > 100 µM (inactive); in the assay with RXF 631, > 100 µM (inactive). Moreover, the GI50 in the assay on DMS-273 and with DLD-1 was > 100 µM (inactive) throughout.

Regarding `C=C(c1ccccc1)[C@@]1(O)CC[C@@H]1N(CC#N)Cc1ccccc1`, the GI50 is 15.9 µM (inactive) in the assay on LXFL 529; 31.2 µM (inactive) with SNB-78; 14.6 µM (inactive) in the assay with HOP-18; 17 µM (inactive) in the assay with DMS-114; 63.1 µM (inactive) with KM-20L2; 20.5 µM (inactive) in the assay on DMS-273. Further, the GI50 in the assay with DLD-1 is 19.6 µM (inactive).

For `COc1ccc(C(C#N)NNc2nc(C)cc(O)n2)cc1OC` (configuration not stated), the GI50 with LXFL 529, in the assay on SNB-78, in the assay on HOP-18, in the assay on DMS-114, in the assay with KM-20L2 and in the assay with DMS-273 was > 100 µM (inactive) throughout. Also, in the assay on DLD-1, the GI50 is > 100 µM (inactive).

Regarding `COc1cc(Br)c(C2OCCCO2)cc1OCc1ccccc1`, the GI50 in the assay with LXFL 529 was 48.2 µM (inactive); in the assay on SNB-78 it was 61.4 µM (inactive); with DMS-114, 47.1 µM (inactive); with KM-20L2, > 100 µM (inactive); in the assay with RXF 631 it was > 100 µM (inactive); with DMS-273 it was 37.6 µM (inactive). Moreover, in the assay on DLD-1, the GI50 is 39.8 µM (inactive).

`Nc1c(-c2ccccc2-c2c(N)[n+]([O-])c3ccccc3[n+]2[O-])[n+]([O-])c2ccccc2[n+]1[O-]`: the GI50 is 6.19 µM (inactive) in the assay on LXFL 529; 71.8 µM (inactive) in the assay on SNB-78; 7.71 µM (inactive) in the assay with HOP-18; 3.36 µM (inactive) with DMS-114; 4.33 µM (inactive) in the assay on KM-20L2; 4.66 µM (inactive) in the assay on DMS-273. Besides, the GI50 with DLD-1 was 4.63 µM (inactive).

For the compound `Cc1ccc2c(c1)CN(C(=O)CCC(=O)OCc1ccccc1)c1ccc(C)cc1CN2C(=O)CCC(=O)OCc1ccccc1`, the GI50 in the assay with LXFL 529, with SNB-78, with HOP-18, with DMS-114, in the assay with KM-20L2 and in the assay with DMS-273 was > 100 µM (inactive) throughout. Moreover, in the assay on DLD-1, the GI50 was > 100 µM (inactive).

As to `COc1cc2cc3c4c(cc(OC)c(OC)c4c2cc1OC)CCN3C(=O)CCC(=O)NCCCN(C)C`, the GI50 was 61 µM (inactive) with LXFL 529; 24.9 µM (inactive) in the assay on XF498; > 100 µM (inactive) in the assay on SNB-78; > 100 µM (inactive) in the assay on HOP-18; 27.8 µM (inactive) with DMS-114; 24.4 µM (inactive) with KM-20L2. Also, the results for the GI50 with DMS-273 and with DLD-1 were 73.1 µM (inactive) and 16.9 µM (inactive), respectively.

As for `CC1CCC2(C)C(CC=C(C=O)C2(O)C=O)C12CO2` (configuration not stated), the GI50 was 1.54 µM (inactive) in the assay on LXFL 529; 2.17 µM (inactive) with XF498; 2.07 µM (inactive) with SNB-78; 1.57 µM (inactive) with DMS-114; 2.49 µM (inactive) with KM-20L2; 1.99 µM (inactive) with RXF 631. In addition, in the assay with DMS-273, the GI50 is 1.79 µM (inactive).

On to `COc1ccc(C2=C(Cl)c3cc(OC)c(OC)cc3C2Cl)cc1OC` (configuration not stated), for which the GI50 was 16 µM (inactive) in the assay on XF498; 20.7 µM (inactive) in the assay with SNB-78; 21.7 µM (inactive) in the assay on HOP-18; 15.6 µM (inactive) in the assay with KM-20L2; 19.1 µM (inactive) with RXF 631; 14.3 µM (inactive) in the assay on DMS-273. For the same compound, the GI50 with DLD-1 was 15.3 µM (inactive).

Turning to `C#CCNC(=O)NC(CCCNC(=O)OCc1ccccc1)C(=O)OCc1ccccc1` (configuration not stated), the GI50 in the assay on LXFL 529 was > 100 µM (inactive); in the assay on XF498 it was 12.9 µM (inactive); with SNB-78, > 100 µM (inactive); in the assay on DMS-114, > 100 µM (inactive); in the assay on KM-20L2, > 100 µM (inactive); in the assay on RXF 631 it was > 100 µM (inactive). For the same compound, the GI50 with DMS-273 and with DLD-1 was > 100 µM (inactive) throughout.

Consider `NC(=S)N/N=C1/C(=O)N(c2ccccc2)C(=O)C1C(=O)Nc1ccccc1` (configuration not stated), for which the GI50 in the assay with LXFL 529, in the assay with XF498, in the assay with SNB-78, in the assay with HOP-18, in the assay on DMS-114 and with KM-20L2 was > 100 µM (inactive) in each case. The GI50 with RXF 631 and in the assay on DMS-273 was > 100 µM (inactive) in each case.

For the compound `CC(=O)OCC(OC(C)=O)C(OC(C)=O)C(OC(C)=O)C(=O)CNn1c(-c2ccccc2)nc2ccc(Br)cc2c1=O` (configuration not stated), the GI50 is > 100 µM (inactive) in the assay on LXFL 529; 21.2 µM (inactive) in the assay on XF498; > 100 µM (inactive) in the assay on SNB-78; > 100 µM (inactive) in the assay with DMS-114; > 100 µM (inactive) in the assay with KM-20L2; > 100 µM (inactive) with DMS-273.

As to `COc1cc([C@@H]2c3cc4c(cc3[C@@H](OC3OC5CO[C@@H](c6cccs6)OC5C(O)C3O)[C@H]3COC(=O)[C@H]23)OCO4)cc(OC)c1O` (some centres not stated), the 50% growth inhibitory concentration (GI50) was 0.31 µM (active) with XF498; 1.08 µM (active) in the assay on SNB-78; 1.57 µM (inactive) in the assay with HOP-18; 2.12 µM (inactive) in the assay on KM-20L2; 0.084 µM (active) in the assay on DMS-273; 2.18 µM (inactive) in the assay on DLD-1.

On to `O=C1O[C@@H](c2ccccc2)C[C@@H]1CN1CCOCC1`, for which the GI50 with LXFL 529, with XF498, with SNB-78, with DMS-114, with KM-20L2 and in the assay on RXF 631 was > 100 µM (inactive) in each case. Also, the GI50 in the assay on DLD-1 was > 100 µM (inactive).

For the compound `COc1cc(NS(C)(=O)=O)ccc1NCc1c2ccccc2nc2ccccc12`, the GI50 in the assay with LXFL 529 was 29 µM (inactive); in the assay with XF498 it was 33.4 µM (inactive); with DMS-114 it was 17.3 µM (inactive); with KM-20L2, 50.8 µM (inactive); in the assay on RXF 631, 15 µM (inactive); in the assay on DMS-273, 28.4 µM (inactive). Further, in the assay on DLD-1, the GI50 was 17.1 µM (inactive).
